Laboratory results reported in patent US20250241985A1, “NANOLIPOSOME COMPOSITIONS AND METHODS OF TREATING STROKE” (United States Government As Represented By The Department …, priority 2020, published 2025).

Assays:
[1] = system: human brain microvascular endothelial cells (HBMVECs); assay: Viability of human brain microvascular endothelial cells under physoxia/hypoxia, with or without medin (calcein-AM, flow cytometry); format: cell-based; settings: medin 5 μM, 20 hours; for cell viability under hypoxic condition: hypoxia (1% oxygen)
Experimental: (§1) Methods. Recombinant medin was expressed in Lemo 21 (DE3) cells using POPINS-medin (Karamanova N, et al. J Am Heart Assoc 2020; 9:e014810) and confirmed to have >95% purity by SDS-PAGE. GM1L was prepared from phosphatidylcholine, cholesterol and monosialoganglioside (molar ratios 70:25:5) using lipid hydration method (Karamanova N, et al. J Am Heart Assoc 2020; 9:e014810). Primary human brain microvascular ECs (Lonza, passages 4-8) were exposed for 20 hours to 4 different treatments (vehicle control, medin 5 μM, medin 5 μM+GM1L 300 μg/ml or GM1L 300 μg/ml) under two aerobic conditions: physoxia (5% oxygen) or hypoxia (1% oxygen). Cell viability was assessed using calcein-AM fluorescence (based on principle of intact esterases in viable cells that releases fluorescent calcein) using flow cytometry (measurements expressed relative to control ECs exposed to room air). Gene expression of antioxidant enzymes heme-oxygenase 1 (HO1), NADPH quinone dehydrogenase (NQO1) and superoxide dismutase 1 (SOD1) were measured separately by qPCR on ECs.
Cell viability was assessed using calcein-AM fluorescence using flow cytometry. Measurements are expressed relative to control HBMVECs exposed to room air.

HO-1, NQO1 and SOD1 = assay: Gene (qPCR) and protein expression of antioxidant enzymes in endothelial cells; format: cell-based, human; settings: medin 5 μM, 20 hours
Experimental: as §1
Nrf2 is a transcription factor that is a master regulator of production of antioxidant enzymes and protective mechanisms against hypoxic/ischemic stress and inflammatory stress.

[2] = system: stroke injury, preclinical models; settings: 150 mg/kg of free monosialoganglioside in saline; cited from earlier work

Row | Substance | cell viability under hypoxic condition [1] | cell viability under hypoxic condition ([1]; listed as Medin) | cell viability under physoxic condition ([1]; physoxia (5% oxygen)) | antioxidant enzyme gene expression versus control (HO-1, NQO1 and SOD1) | reduction in infarct volume, prior study [2] [%]
1 | medin: 50-amino acid amyloidogenic peptide; recombinant, expressed in Lemo 21 (DE3) cells (RLDKQGNFNAWVAGSYGNDQWLQVDLGSSKEVTGIITQGARNFGSVQFVA; Medin; UniProt Q08431 268-317, looked up) | more so | significant additive adverse effect | reduced viability | did not elicit a change | 
2 | monosialoganglioside |  |  |  |  | 6.8
